{"source": "patent US8623919B2", "about": "“Method of synthesizing S-allyl-cysteine analogues and their therapeutic application in treating myocardial infarction” (Fudan University, priority 2007, dated 2014)", "key": {"myocardial cells": {"tested_on": "myocardial cells", "assay": "SOD activity (Hydroxylamine method) in hypoxia/reoxygenation injured myocardial cells", "format": "cell-based, Sprague-Dawley (SD) rat", "method": "Myocardial cell samples were obtained from the same procedure of Example 1, the experiment groups were divided and hypoxia/reoxygenation experiments were performed on Control group, Vehicle group, SAC and analogue groups, same as the experiments in Example 1 with the same dosages and same conditions. Myocardial cells were obtained from each sample (10^6 myocardial cells/sample) from the Control group, Vehicle group, SAC and analogue groups. The cells were lysed under sterilized condition, and SOD (superoxide dismutase) activities in each sample of the cells were determined by Hydroxylamine method (a conventional method well known in the arts) using each microgram of protein per 1 milliliter reaction solution inhibits SOD activity to its 50% of original activity, in which the amount of SOD used in the reaction as standard of 1 unit of SOD activity."}, "rats following MI injury [1]": {"tested_on": "rats following MI injury", "assay": "MDA content (TBA assay) in rats (sham or MI)", "format": "in vivo, SD rats", "conditions": "Sham rats; 50 mg/Kg/day intraperitoneal", "method": "(§1) Animals were assigned and prepared the same as in Example 7, and dosages of SPRC and SAC were used the same in this example as in Example 7.\nSerum CK levels were detected with diagnostic kit (NJBI, China) according to the instructions. LDH were determined calorimetrically with a spectrophotometer. Lipid peroxidation was measured in terms of MDA content using the thiobarbituric acid (TBA) assay. […] With regard to lipid peroxidation, the levels of MDA in MI groups increased at 48 h after myocardial infarction. […] (FIG. 14)"}, "H9c2 cells [2]": {"tested_on": "H9c2 cells", "assay": "Mn-SOD activity of H9c2 cells injured by H2O2", "format": "cell-based", "conditions": "H2O2 injured H9c2; SPRC Low Dose 10^−7 mol/L", "method": "(§2) H9c2 cells were cultured same as Example 12, the cells were then divided into the groups same as Example 12.\nThe cells were lysed under sterilized condition, and lipid peroxidation experiments on the samples were performed. […] The effect of SPRC could be blocked by PAG, indicating SPRC mediates its effect on H9c2 cell by way of endogenous H2S."}, "Bax mRNA": {"tested_on": "Bax mRNA", "assay": "RT-PCR of Bax mRNA in left ventricle", "format": "in vivo, SD rats", "conditions": "MI rats, 50 mg/Kg/day, p<0.05", "text": "as §1\n(§3) To further verify the effects of SPRC and SAC, the expressions of Bcl-2, Bax and CSE mRNA were accessed by RT-PCR (FIG. 17). An isoform of the CSE gene was detected (GenBank; access no. AY641456). The relative amounts of CSE mRNA in Left ventricular subjected to MI were increase 3.3-fold and 1.5-fold following SPRC and SAC exposure as compared to the MI group."}, "rats following MI injury [3]": {"tested_on": "rats following MI injury", "assay": "Plasma H2S levels in rats (sham or MI)", "format": "in vivo, SD rats", "conditions": "50 mg/Kg/day intraperitoneal", "method": "as §1\n(§4) The plasma levels of H2S in each treatment group were determined since CSE mediates the endogenous production of H2S in mammals. Plasma H2S concentrations in MI group rats at 48 h after MI induction were 34.7±5.6 μM (n=8). […] Left ventricular CSE activity was analyzed in the tissue homogenates from each treatment group (n=6). CSE activity was 1.58±0.15 μmol/g protein/hr in left the ventricular tissues in MI group and 2.19±0.32 μmol/g protein/hr in the MI+SAC treated rats."}, "CSE": {"target": "T1, CSE (Rattus norvegicus, UniProt P18757)", "T1 construct": "from tissue; host or cells: rat left ventricle (homogenate), myocardial infarction model", "T1 sequence (P18757 whole entry)": "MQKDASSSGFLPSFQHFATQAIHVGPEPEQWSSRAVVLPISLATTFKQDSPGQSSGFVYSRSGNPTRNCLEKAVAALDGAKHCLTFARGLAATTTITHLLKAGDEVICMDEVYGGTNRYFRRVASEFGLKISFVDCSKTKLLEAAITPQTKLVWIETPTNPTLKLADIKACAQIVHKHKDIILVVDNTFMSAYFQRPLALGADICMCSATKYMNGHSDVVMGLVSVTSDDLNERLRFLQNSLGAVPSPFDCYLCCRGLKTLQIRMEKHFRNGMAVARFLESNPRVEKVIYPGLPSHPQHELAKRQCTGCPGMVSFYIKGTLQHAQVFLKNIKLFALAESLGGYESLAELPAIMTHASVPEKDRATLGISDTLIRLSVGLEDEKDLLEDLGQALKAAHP", "assay": "Left ventricular CSE activity in tissue homogenates of rats", "format": "in vivo, SD rats", "conditions": "50 mg/Kg/day; for CSE activity: left ventricle", "method": "as §1, §4\nSPRC administered rats had the highest CSE activity of 2.58±0.07 μmol/g protein/hr (p<0.01) (FIG. 15B). This observation correlated with the observed increases in H2S concentrations in the same treatment groups."}, "H9c2 cells [4]": {"tested_on": "H9c2 cells", "assay": "Apoptosis of H9c2 cells, Hoechst and PI double stain", "format": "cell-based", "conditions": "H2O2 injured H9c2; Hoechst 33342 and PI double stain", "method": "as §2\nCells were washed in PBS and then stained with Hoechst 33342 (10 μg/ml) and propidium iodide (10 μg/ml) for 10 min at 37° C. Cells were washed again with PBS and fixed with 3.7% paraformaldehyde (v/v). Each field of cells was photographed twice (magnification, ×400), using appropriate filters to examine and compare Hoechst 33342 and PI fluorescence staining in the same cells. […]. Apoptosis is of great damage to the structure and the function of the heart, which leads to heart failure."}, "rats following MI injury [5]": {"tested_on": "rats following MI injury", "assay": "ECG in rats following MI injury", "format": "in vivo, SD rats", "conditions": "50 mg/Kg/day, day 10, 48 hr after the induction of MI", "method": "SPRC and SAC were dissolved in saline (vehicle). Male SD rats (weight 200-250 g) were randomly assigned to […] treatment groups: group (1) Sham group: Sham-treated with saline (n=4), (2) Sham+SPRC group: Sham-treated with SPRC (50 mg/Kg/day) (n=4), (3) Sham+SAC group: Sham-treated with SAC (50 mg/Kg/day) (n=4), (4) MI group: MI treated with saline (n=8), (5) MI+SPRC group: MI treated with SPRC (50 mg/Kg/day) (n=8), (6) MI+SAC group: MI treated with SAC (50 mg/Kg/day) (n=8). Rats were pre-treated for seven days with each SAC analogues respectively via an intraperitoneal injection once daily before they were used for MI model studies. […] Briefly, the rats were anesthetized with 7% choral hydrate (60 mg/kg intraperitoneal injection), endotracheally intubated and mechanically ventilated with room air, respiratory rate 100 breaths/min, tidal volume 2.5 ml with a rodent ventilator (DHX-150, China). ECG was recorded in the anaesthetized animal for a period of one minute using the Animal Mflab200 amplifier (Produced in China). A left thoracotomy was performed and the third intercostal space was exposed. […] Then incisions were sutured and the chests were closed. […] Forty eight hours after the surgery, ECG was recorded for each rat in each group. […] To evaluate the effect of SPRC and SAC on MI, infarct size were measured after TTC staining (FIG. 12)."}, "CSE mRNA": {"tested_on": "CSE mRNA", "assay": "RT-PCR of CSE mRNA in left ventricle", "format": "in vivo, SD rats", "conditions": "MI rats, 50 mg/Kg/day", "text": "as §1, §3"}}, "data": [{"smiles": "C#CCSC[C@H](N)C(=O)O", "note": "[SPRC, S-propargyl-cysteine]", "values": [{"measurement": "Mn-SOD activity in mitochondria", "setting": "myocardial cells; 10^−5 mol/L", "value": "able to elevate"}, {"measurement": "effect of PAG on elevating Mn-SOD activity", "setting": "myocardial cells; with PAG", "value": "PAG also reversed"}, {"measurement": "MDA", "setting": "rats following MI injury [1]", "value": "3.79 ± 0.40", "unit": "nmol/mL"}, {"measurement": "Mn-SOD Activity", "setting": "H9c2 cells [2]", "value": "8.75 ± 0.68", "unit": "U/mgprot"}, {"measurement": "Bax gene expression", "setting": "Bax mRNA", "value": "down regulated"}, {"measurement": "H2S concentration in plasma", "setting": "rats following MI injury [3]; MI rats, 48 h after MI induction, 50 mg/kg/day", "value": "91.6 ± 7.6", "unit": "µM"}, {"measurement": "H2S concentration in plasma", "setting": "rats following MI injury [3]; Sham rats", "value": "67.2 ± 6.4", "unit": "µM"}, {"measurement": "CSE activity", "setting": "CSE; MI rats", "value": "2.58 ± 0.07", "unit": "μM/mgprot"}, {"measurement": "Left ventricular CSE activity", "setting": "CSE; MI rats, left ventricular tissue homogenates, MI group 1.58±0.15", "value": "2.58±0.07", "unit": "μmol/g protein/hr"}, {"measurement": "CSE activity", "setting": "CSE; Sham rats", "value": "2.41 ± 0.12", "unit": "μM/mgprot"}, {"measurement": "apoptosis of H9c2 cells", "setting": "H9c2 cells [4]", "value": "effective on inhibiting apoptosis of H9c2 cells"}, {"measurement": "ST-segment elevation in ECG", "setting": "rats following MI injury [5]", "value": "less elevated ST-segment"}, {"measurement": "relative amounts of CSE mRNA, increase as compared to the MI group", "setting": "CSE mRNA", "value": 3.3, "unit": "fold"}]}]}
